Non-standard residues stand in square brackets, D forms with d. Residues, ends and D or L forms follow the SMILES beside them. *: point of attachment. Octanoyl = CCCCCCCC(=O)*; Ac5c = NC1(C(=O)O)CCCC1; Aib = CC(C)(N)C(=O)O
Experiments:
Experiment in all cases: MTT cytotoxicity assay, 48 hours (Example 14)
HBL 100 (Breast) = format: cell-based, human
Experimental: (§1) The cytotoxic effect of peptide sequences SEQ ID NO: 9, SEQ ID NO: 10, SEQ ID NO: 11 and SEQ ID NO: 12, were studied by MTT assay which is based on the principle of uptake of MTT[3-[4,5-dimethylthiazol-2-yl]-2,5-diphenyl tetrazolium bromide], a tetrazolium salt by the metabolically active cells where it is metabolized by active mitochondria into a blue colored formazan product which can be read spectrophotometrically. Tumor cells KB (oral squamous). HuTu80 (Stomach), PTC and SW620 (colon), U87MG (Glioblastoma), HBL 100. (Breast), HeP2 (laryngeal) and L132 (Lung) were incubated with the peptide analogs for 48 hours at 37° C. in a 96-well culture plate, followed by the addition of 100 μl MTT and further incubation of 1 hour. The formazon crystals formed inside the cells were dissolved with a detergent comprising 10% Sodium dodecyl sulfate and 0.01 N HCl and optical density read on a multiscan ELISA reader. The optical density was directly proportional to the number of proliferating and metabolically active cells.

HuTu80 (Stomach) = format: cell-based, human
Experimental: as §1

KB (oral squamous) = format: cell-based, human
Experimental: as §1

PTC (colon) = format: cell-based, human
Experimental: as §1

SW620 (colon) = format: cell-based, human
Experimental: as §1

HeP2 (laryngeal) = format: cell-based
Experimental: as §1

L132 (Lung) = format: cell-based
Experimental: as §1

U87MG (Glioblastoma) = format: cell-based
Experimental: as §1

CC(C)C[C@H](NC(=O)[C@H](Cc1c[nH]cn1)NC(=O)C1(NC(=O)[C@@H](NC(=O)[C@H](C)NC(=O)[C@H](Cc2c[nH]c3ccccc23)NC(=O)[C@H](CCC(N)=O)NC(=O)[C@H](N)Cc2ccccc2)C(C)C)CCCC1)C(N)=O [SEQ ID: 10, D-Phe-Gln-Trp-Ala-Val-Ac5c-His-Leu-NH2] (H-[dF]QWAV[Ac5c]HL-NH2; N-terminus assumed)
Percentage cytotoxicity (HBL 100 (Breast); HBL100, 10 pM): 21.1 ± 0.7% | Percentage cytotoxicity (HBL 100 (Breast); HBL100, 100 pM): 16.6 ± 0.1% | Percentage cytotoxicity (HBL 100 (Breast); HBL100, 1 nM): 23.3 ± 1.6% | Percentage cytotoxicity (HBL 100 (Breast); HBL100, 10 nM): 32.9 ± 0.7% | Percentage cytotoxicity (HBL 100 (Breast); HBL100, 100 nM): 21.2 ± 1.7% | Percentage cytotoxicity (HBL 100 (Breast); HBL100, 1 μM): 18.5 ± 1.7% | Percentage cytotoxicity (HuTu80 (Stomach); HuTu80, 10 pM): 13.5 ± 0.8% | Percentage cytotoxicity (HuTu80 (Stomach); HuTu80, 100 pM): 22.9 ± 0.2% | Percentage cytotoxicity (HuTu80 (Stomach); HuTu80, 1 nM): 23.3 ± 2.8% | Percentage cytotoxicity (HuTu80 (Stomach); HuTu80, 10 nM): 20.6 ± 1.7% | Percentage cytotoxicity (HuTu80 (Stomach); HuTu80, 100 nM): 21.0 ± 2.0% | Percentage cytotoxicity (HuTu80 (Stomach); HuTu80, 1 μM): 17.2 ± 1.1% | Percentage cytotoxicity (KB (oral squamous); 10 pM): 19.2 ± 2.9% | Percentage cytotoxicity (KB (oral squamous); 100 pM): 25.0 ± 6.3% | Percentage cytotoxicity (KB (oral squamous); 1 nM): 31.1 ± 4.1% | Percentage cytotoxicity (KB (oral squamous); 10 nM): 27.3 ± 2.7% | Percentage cytotoxicity (KB (oral squamous); 100 nM): 22.0 ± 1.1% | Percentage cytotoxicity (KB (oral squamous); 1 μM): 16.5 ± 0.2% | Percentage cytotoxicity (PTC (colon); 10 pM): 22.2 ± 4.9% | Percentage cytotoxicity (PTC (colon); 100 pM): 21.6 ± 3.1% | Percentage cytotoxicity (PTC (colon); 1 nM): 29.4 ± 2.9% | Percentage cytotoxicity (PTC (colon); 10 nM): 32.5 ± 5.1% | Percentage cytotoxicity (PTC (colon); 100 nM): 29.3 ± 3.2% | Percentage cytotoxicity (PTC (colon); 1 μM): 28.4 ± 3.6% | Percentage cytotoxicity (SW620 (colon); SW620, 10 pM): 16.7 ± 0.2% | Percentage cytotoxicity (SW620 (colon); SW620, 100 pM): 20.9 ± 0.6% | Percentage cytotoxicity (SW620 (colon); SW620, 1 nM): 22.4 ± 1.7% | Percentage cytotoxicity (SW620 (colon); SW620, 10 nM): 25.5 ± 2.8% | Percentage cytotoxicity (SW620 (colon); SW620, 100 nM): 19.4 ± 1.8% | Percentage cytotoxicity (SW620 (colon); SW620, 1 μM): 22.2 ± 2.1% | Percentage cytotoxicity (HeP2 (laryngeal); HeP2, 10 pM): 1.7 ± 0.1% | Percentage cytotoxicity (HeP2 (laryngeal); HeP2, 100 pM): 19.1 ± 0.6% | Percentage cytotoxicity (HeP2 (laryngeal); HeP2, 1 nM): 27.2 ± 2.6% | Percentage cytotoxicity (HeP2 (laryngeal); HeP2, 10 nM): 27.5 ± 2.8% | Percentage cytotoxicity (HeP2 (laryngeal); HeP2, 100 nM): 26.3 ± 1.7% | Percentage cytotoxicity (HeP2 (laryngeal); HeP2, 1 μM): 19.9 ± 1.5% | Percentage cytotoxicity (L132 (Lung); L132, 10 pM): 1.9 ± 0.2% | Percentage cytotoxicity (L132 (Lung); L132, 100 pM): 29.4 ± 1.9% | Percentage cytotoxicity (L132 (Lung); L132, 1 nM): 29.5 ± 2.8% | Percentage cytotoxicity (L132 (Lung); L132, 10 nM): 27.5 ± 2.8% | Percentage cytotoxicity (L132 (Lung); L132, 100 nM): 27.8 ± 2.1% | Percentage cytotoxicity (L132 (Lung); L132, 1 μM): 22.4 ± 1.8% | Percentage cytotoxicity (U87MG (Glioblastoma); 10 pM): 11.6 ± 1.7% | Percentage cytotoxicity (U87MG (Glioblastoma); 100 pM): 16.5 ± 0.5% | Percentage cytotoxicity (U87MG (Glioblastoma); 1 nM): 25.6 ± 2.1% | Percentage cytotoxicity (U87MG (Glioblastoma); 10 nM): 20.0 ± 0.0% | Percentage cytotoxicity (U87MG (Glioblastoma); 100 nM): 15.0 ± 0.5% | Percentage cytotoxicity (U87MG (Glioblastoma); 1 μM): 10.0 ± 0.0%

CCCCCCCC(=O)N[C@H](Cc1ccccc1)C(=O)N[C@@H](CCC(N)=O)C(=O)N[C@@H](Cc1c[nH]c2ccccc12)C(=O)N[C@@H](C)C(=O)N[C@H](C(=O)NC(C)(C)C(=O)N[C@@H](Cc1c[nH]cn1)C(=O)N[C@@H](CC(C)C)C(N)=O)C(C)C [SEQ ID: 12, Octanoyl-D-Phe-Gln-Trp-Ala-Val-Aib-His-Leu-NH2] (Octanoyl-[dF]QWAV[Aib]HL-NH2)
Percentage cytotoxicity (HBL 100 (Breast); HBL100, 10 pM): 29.0 ± 3.8% | Percentage cytotoxicity (HBL 100 (Breast); HBL100, 100 pM): 34.7 ± 2.8% | Percentage cytotoxicity (HBL 100 (Breast); HBL100, 1 nM): 29.6 ± 0.4% | Percentage cytotoxicity (HBL 100 (Breast); HBL100, 10 nM): 27.7 ± 1.5% | Percentage cytotoxicity (HBL 100 (Breast); HBL100, 100 nM): 23.6 ± 2.7% | Percentage cytotoxicity (HBL 100 (Breast); HBL100, 1 μM): 11.8 ± 1.1% | Percentage cytotoxicity (HuTu80 (Stomach); HuTu80, 10 pM): 8.3 ± 1.1% | Percentage cytotoxicity (HuTu80 (Stomach); HuTu80, 100 pM): 13.0 ± 0.7% | Percentage cytotoxicity (HuTu80 (Stomach); HuTu80, 1 nM): 33.1 ± 4.8% | Percentage cytotoxicity (HuTu80 (Stomach); HuTu80, 10 nM): 23.4 ± 0.5% | Percentage cytotoxicity (HuTu80 (Stomach); HuTu80, 100 nM): 21.8 ± 2.1% | Percentage cytotoxicity (HuTu80 (Stomach); HuTu80, 1 μM): 20.0 ± 3.9% | Percentage cytotoxicity (KB (oral squamous); 10 pM): 19.3 ± 2.9% | Percentage cytotoxicity (KB (oral squamous); 100 pM): 19.4 ± 2.9% | Percentage cytotoxicity (KB (oral squamous); 1 nM): 26.6 ± 4.9% | Percentage cytotoxicity (KB (oral squamous); 10 nM): 18.6 ± 2.1% | Percentage cytotoxicity (KB (oral squamous); 100 nM): 11.1 ± 3.1% | Percentage cytotoxicity (KB (oral squamous); 1 μM): 12.4 ± 1.2% | Percentage cytotoxicity (PTC (colon); 10 pM): 19.5 ± 0.8% | Percentage cytotoxicity (PTC (colon); 100 pM): 18.6 ± 2.4% | Percentage cytotoxicity (PTC (colon); 1 nM): 30.1 ± 4.1% | Percentage cytotoxicity (PTC (colon); 10 nM): 20.7 ± 3.8% | Percentage cytotoxicity (PTC (colon); 100 nM): 16.1 ± 2.5% | Percentage cytotoxicity (PTC (colon); 1 μM): 14.4 ± 2.7% | Percentage cytotoxicity (SW620 (colon); SW620, 10 pM): 34.8 ± 0.4% | Percentage cytotoxicity (SW620 (colon); SW620, 100 pM): 38.4 ± 2.8% | Percentage cytotoxicity (SW620 (colon); SW620, 1 nM): 32.2 ± 2.6% | Percentage cytotoxicity (SW620 (colon); SW620, 10 nM): 36.1 ± 1.9% | Percentage cytotoxicity (SW620 (colon); SW620, 100 nM): 25.3 ± 0.6% | Percentage cytotoxicity (SW620 (colon); SW620, 1 μM): 22.6 ± 1.1% | Percentage cytotoxicity (HeP2 (laryngeal); HeP2, 10 pM): 10.0 ± 0.0% | Percentage cytotoxicity (HeP2 (laryngeal); HeP2, 100 pM): 24.4 ± 0.1% | Percentage cytotoxicity (HeP2 (laryngeal); HeP2, 1 nM): 28.9 ± 0.5% | Percentage cytotoxicity (HeP2 (laryngeal); HeP2, 10 nM): 29.2 ± 1.1% | Percentage cytotoxicity (HeP2 (laryngeal); HeP2, 100 nM): 25.6 ± 0.4% | Percentage cytotoxicity (HeP2 (laryngeal); HeP2, 1 μM): 28.7 ± 0.8% | Percentage cytotoxicity (L132 (Lung); L132, 10 pM): 0.0 ± 0.0% | Percentage cytotoxicity (L132 (Lung); L132, 100 pM): 23.1 ± 0.7% | Percentage cytotoxicity (L132 (Lung); L132, 1 nM): 26.7 ± 0.4% | Percentage cytotoxicity (L132 (Lung); L132, 10 nM): 26.4 ± 0.3% | Percentage cytotoxicity (L132 (Lung); L132, 100 nM): 22.0 ± 0.1% | Percentage cytotoxicity (L132 (Lung); L132, 1 μM): 22.2 ± 0.2% | Percentage cytotoxicity (U87MG (Glioblastoma); 10 pM): 13.1 ± 2.2% | Percentage cytotoxicity (U87MG (Glioblastoma); 100 pM): 22.1 ± 3.8% | Percentage cytotoxicity (U87MG (Glioblastoma); 1 nM): 28.3 ± 1.9% | Percentage cytotoxicity (U87MG (Glioblastoma); 10 nM): 27.5 ± 2.9% | Percentage cytotoxicity (U87MG (Glioblastoma); 100 nM): 13.1 ± 2.3% | Percentage cytotoxicity (U87MG (Glioblastoma); 1 μM): 15.4 ± 3.1%

From patent US6989371B1, “Bombesin analogs for treatment of cancer” (Dabur Research Foundation, priority 1996, dated 2006)
